Key:
Solubility in water = assay type: physicochemical
Cytotoxicity test = assay type: cell-based; conditions: human, TZM-bl cells

enfuvirtide
aqueous solubility (in words) (Solubility in water): negligible | CC50 (Cytotoxicity test): > 100 µM

Reference: paper PMC7115413 (European Journal of Medicinal Chemistry, 2016)
